{
  "source": "patent US20260263555A1",
  "about": "“ANNEXIN A1 DELAYED DOSING” (Reso Ther Pharma A/S, priority 2023, published 2026)",
  "tested_on": "rat model of acute myocardial infarction",
  "test": "Peptide 1 treatment for 1 day versus 3 days, cardiac function by transthoracic echocardiography in a rat model of acute myocardial infarction",
  "type": "in vivo, male Sprague Dawley rats",
  "method": "Myocardial infarction was induced in male Sprague Dawley rats. On day 0 rats were anaesthetized with a mixture of 2 to 2.2% isoflurane USP (Abbot Laboratories, Montreal Canada) in oxygen, and placed on a heating pad (set at 37° C.) to maintain body temperature. The animals were intubated and immediately ventilated with a mixture of 2 to 2.2% isoflurane USP (Abbot Laboratories, Montreal Canada) in oxygen by means of a positive-pressure rodent respirator (CWE model SAR-830/P) set at ≈10 mL/kg bodyweight at a frequency of 70-80 strokes/min. The pericardium was opened to expose the heart and a 5-0 wax coated braided silk suture (Sofsilk™) was placed around the left anterior descending (LAD) coronary artery, approximately 2-3 mm below the left atrium. The suture was briefly snared to verify the size and location of myocardial ischemia based on colour change and was then tied to produce a large anterolateral myocardial infarction (affecting around 45% of the LV). The suture was kept in place for 30 minutes (30 minutes of ischemia) followed by reperfusion. A group of rats receiving sham procedure was also included. […] Fourteen days after ischemia, cardiac function was assessed by transthoracic echocardiography (echocardiograph model Q9, ChisonMedical Imaging Co. connected to a Chison 12.0 MHz probe).",
  "note": "No end group written: not given here.",
  "data": [
    {"sequence": "AMVSEFLKQAWFIENEEQEYVQTLKSSKGGPGSAVSPYPTFNPSSDV (AMVSEFLKQAWFIENEEQEYVQTLKSSKGGPGSAVSPYPTFNPSSDV-NH2; ends and bridges not checked) [Peptide 1]", "values": [
      {"measurement": "improvement of cardiac output compared to vehicle treatment", "setting": "14 days post ischemia, tail vein, three daily dosages (0, 3, 6 h post reperfusion) for 1 day or 3 days, 10, 30 or 100 ug/kg", "value": "20-30%"},
      {"measurement": "long-term cardiac function", "setting": "at least three dosages, echocardiography 14 days after ischemia, vs vehicle", "value": "significantly improves long-term cardiac function"}
    ]}
  ]
}
